Data on 4 compounds can be found in publication PMC3914206.

The target of assay [1] is T1, panel of 442 kinases (Homo sapiens, UniProt P09769).
T1 construct: purchased KINOMEscan
The assay is classed as binding. The conditions noted are these: Compound Concentration 10 µM. The source says: (§1) We assessed the selectivity of members of this scaffold using the KINOMEscan methodology across a near comprehensive panel of 442 kinases [[18,27]].

The target in assay [2] is T2, panel of 442 kinases (Homo sapiens, UniProt P51817).
T2 construct: purchased KINOMEscan
T2 sequence (P51817 1-358): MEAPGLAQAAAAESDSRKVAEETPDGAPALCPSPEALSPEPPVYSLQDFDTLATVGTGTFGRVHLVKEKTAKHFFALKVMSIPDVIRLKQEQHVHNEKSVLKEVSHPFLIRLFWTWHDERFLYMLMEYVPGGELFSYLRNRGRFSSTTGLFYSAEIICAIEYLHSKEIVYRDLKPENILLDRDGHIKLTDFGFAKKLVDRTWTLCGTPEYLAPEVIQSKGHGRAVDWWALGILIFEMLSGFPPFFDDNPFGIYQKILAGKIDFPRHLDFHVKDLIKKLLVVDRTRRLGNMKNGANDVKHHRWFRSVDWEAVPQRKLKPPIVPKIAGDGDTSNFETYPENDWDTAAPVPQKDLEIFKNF
The assay is classed as binding. The conditions noted are these: Compound Concentration 10 µM.
Text: as §1

T1 sequence (P09769 whole entry): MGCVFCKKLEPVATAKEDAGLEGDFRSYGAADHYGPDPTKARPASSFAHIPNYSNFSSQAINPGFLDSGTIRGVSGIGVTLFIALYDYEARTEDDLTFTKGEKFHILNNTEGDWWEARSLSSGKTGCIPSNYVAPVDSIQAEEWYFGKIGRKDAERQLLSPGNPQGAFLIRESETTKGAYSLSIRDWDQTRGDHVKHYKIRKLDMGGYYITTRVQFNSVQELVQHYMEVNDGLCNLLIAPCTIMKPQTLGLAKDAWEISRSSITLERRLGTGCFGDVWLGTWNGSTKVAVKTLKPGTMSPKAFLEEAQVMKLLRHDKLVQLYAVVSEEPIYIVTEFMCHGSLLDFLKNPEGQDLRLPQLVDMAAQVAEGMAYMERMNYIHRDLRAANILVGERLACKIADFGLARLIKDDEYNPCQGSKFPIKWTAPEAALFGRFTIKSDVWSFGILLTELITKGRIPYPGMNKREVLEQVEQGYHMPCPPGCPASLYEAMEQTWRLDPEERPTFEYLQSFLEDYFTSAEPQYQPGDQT

With `COc1cc(C(=O)N2CCC(N3CCN(C)CC3)CC2)ccc1Nc1ncc2c(n1)N(C)c1ccccc1C(=O)N2C` [15 (LRRK2-IN-1)], the “KINOMEscan: FGR” value at panel of 442 kinases [1] is listed as 84. For the same compound, the “KINOMEscan: PRKX” value on panel of 442 kinases [2] came out at 99.

As to `COc1cc(C(=O)N2CCC(N3CCN(C)CC3)CC2)ccc1Nc1ncc2c(n1)N1CCc3cccc(c31)C(=O)N2C` [Compound 24], at panel of 442 kinases [1], the “KINOMEscan: FGR” value is 79. Besides, on panel of 442 kinases [2], the “KINOMEscan: PRKX” value is 87.

Consider `COc1cc(C(=O)N2CCC(N3CCN(C)CC3)CC2)ccc1Nc1ncc2c(n1)N(C1CCCC1)c1ccccc1C(=O)N2C` [Compound 25, 11-cyclopentyl-2-((2-methoxy-4-(4-(4-methylpiperazin-1-yl)piperidine-1-carbonyl)phenyl)amino)-5-methyl-5H-benzo[e]pyrimido[5,4-b][1,4]diazepin-6(11H)-one], for which, on panel of 442 kinases [1], the “KINOMEscan: FGR” value stood at 98. In addition, the “KINOMEscan: PRKX” value at panel of 442 kinases [2] was found to be 100.

Take `CCOc1cc(C(=O)N2CCC(N3CCN(C)CC3)CC2)ccc1Nc1ncc2c(n1)N(C1CCCC1)c1ccccc1C(=O)N2C` [Compound 26]: at panel of 442 kinases [1], the “KINOMEscan: FGR” value stood at 99. In addition, the “KINOMEscan: PRKX” value at panel of 442 kinases [2] was 100.
